Results taken from patent US8017585B2, “CXCR4 antagonist and use thereof” (priority 2002, dated 2011).
Bridge positions count the residues as written; N and C are the ends. Square brackets hold non-standard residues; d marks the D form. Peptide text beside a SMILES is read from it. 2Nal = N[C@@H](Cc1ccc2ccccc2c1)C(=O)O; dCit = NC(=O)NCCC[C@@H](N)C(=O)O; Cit = NC(=O)NCCC[C@H](N)C(=O)O; Ahx = NCCCCCC(=O)O; Ava = NCCCCC(=O)O

Tests used:
[1] = tested on: mouse collagen-induced arthritis; assay: Mouse collagen-induced arthritis; type: in vivo, DBA/1JN mouse; conditions: known drugs p.o. daily for 2 weeks: Indomethacin 1 mg/kg, methotrexate 3 mg/kg, FK-506 10 mg/kg
Experimental: FK-506 was purified by a known method (Kino T. et al., J. Antibiot., 1987 40(9): 1249-55). […] For 2 weeks after the additional immunization, body weights and hindlimb thickness were measured and arthritis scoring was made. Arthritis scores were scored at 0-3 points of each limb, and evaluated by the total of the same (12 points being the full points; 0, normal; 1, mild swelling or swelling of a single digit; 2, moderate swelling or swelling of plural digits; 3, severe swelling). Two weeks after the immunization, four limbs and sera were picked. After coat blocking bovine type II collagen (10 μg/mL PBS solution) on the immunoplate, 100 μL of 1000 times diluted mouse serum was added, and kept at room temperature for 2 hours. After cleansing, anti-mouse IgG2a antibody (1000 times dilution) was added. After cleansing, TMB was added, kept at room temperature for 30 minutes, H2SO4 of equal amount was added, and A450 nm was measured. Indomethacin (1 mg/kg), methotrexate (3 mg/kg) and FK-506 (10 mg/kg) were suspended to 0.5% methyl cellulose, and orally administered every day for 2 weeks from the day of the additional immunization at the dose of 0.1 mL/10 g body weight. 0.5% methyl cellulose solution of the equal dose was orally administered to the control group. 4Fbenzoyl-TN14003 was dissolved to PBS, and continuously administered using Alzet osmotic pumps (Alza, 0.5 μL/hr 2 weeks). The osmotic pumps were implanted intradermally to the backs of the mice under ether anesthesia on the day before the additional immunization. As the control, pumps injected with PBS were similarly implanted. Evaluation of each drug was made for the value obtained 2 weeks after the additional immunization. Data were expressed as mean value±standard margin of error (n=8-12). Comparison between 2 groups was made by Student's t-test, p≦0.05 was valued as significant. Multiple comparison was made by Dunnett test, p≦0.05 was valued as significant.

[2] = tested on: human breast cancer MDA-MB-231 cells; assay: Inhibition of CXCL12-induced breast cancer cell migration (Transwell); type: cell-based; conditions: 10 nM of the antagonist; 100 nM CXCL12; 15 hours
Experimental: Transwell filter (polycarbonate filter, 8 μm diameter, Costar Company) was treated at 37° C. for 6 hours in 10 μg/mL fibronectin solution and air-dried. 100 nM of CXCL12 (R&D System Company) and 600 μL/well of buffer-A (0.1% bovine serum albumin, DMEM (GibcoBRL) containing 12 mM HEPES) containing the test compound were added to the lower chamber of the Transwell. The test compound and human breast cancer MDA-MB-231 cells (purchased from American Tissue Culture Collection), and 100 μL/well of buffer A containing 2×10^6 cells/mL were added to the upper chamber. […] Cutting off the filter part, adding 0.1 M sodium citrate/50% ethanol solution, and eluting crystal violet absorption at 550 nm was measured. […]
After 15 hours' incubation at 37° C. in 5% CO2 incubator, the upper surface of the filter was wiped and the cell was removed, and then the cell on the lower surface of the filter was fixed and stained with 25% methanol solution containing 0.5% crystal violet (Wako Pure Chemical Ind.), washed by distilled water and air-dried. Cutting off the filter part, adding 0.1 M sodium citrate/50% ethanol solution, and eluting crystal violet absorption at 550 nm was measured. […]

[3] = molecular target: T1, CXCR4 receptor (Homo sapiens, UniProt P61073); assay: Inhibition of 125I-CXCL12 binding to CXCR4 receptor on Jurkat cells; conditions: Table 1, 125I-CXCL12, 1 hour at room temperature, compounds as acetate salt, read-out: IC50 (nM), inhibitory activity against CXCL12 binding to CXCR4 receptor
T1 construct: 50 μL of Jurkat human T-cell leukemia cells (6×10^6 cells/mL) suspended in buffer; endogenous in cells; host or cells: Jurkat human T-cell leukemia cells
T1 sequence (P61073 whole entry): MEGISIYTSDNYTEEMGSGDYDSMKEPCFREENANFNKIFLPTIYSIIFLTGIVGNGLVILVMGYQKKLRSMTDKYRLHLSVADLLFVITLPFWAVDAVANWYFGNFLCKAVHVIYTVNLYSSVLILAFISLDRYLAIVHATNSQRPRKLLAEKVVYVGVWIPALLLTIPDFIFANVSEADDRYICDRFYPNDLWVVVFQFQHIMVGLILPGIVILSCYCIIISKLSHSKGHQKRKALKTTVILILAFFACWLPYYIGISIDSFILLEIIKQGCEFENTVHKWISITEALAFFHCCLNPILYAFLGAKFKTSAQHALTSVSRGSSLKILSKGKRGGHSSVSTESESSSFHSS
Experimental: After reaction, suction was made toward the reaction solution by 96 well GF/C filter plate, and each well's radioactivity was measured by top count. As the radioactivity index of 100% when the test compound was not added, and 0% when 100 nM of non-radioisotope-labeled CXCL12 was added, the inhibitory activity of each test compound was measured.

| IC50 [3] [nM] | Structure (SMILES) | arthritis score [1] | hindlimb swelling [1] | CXCL12-induced migration of MDA-MB-231 cells [2] |
| --- | --- | --- | --- | --- |
| 5.7 | N=C(N)NCCC[C@H](NC(=O)[C@@H]1CSSC[C@H](NC(=O)[C@H](Cc2ccc3ccccc3c2)NC(=O)[C@H](CCCNC(=N)N)NC(=O)CCCCN)C(=O)N[C@@H](Cc2ccc(O)cc2)C(=O)N[C@@H](CCCNC(N)=O)C(=O)N[C@@H](CCCCN)C(=O)N[C@H](CCC(=O)O)C(=O)N2CCC[C@H]2C(=O)N[C@@H](Cc2ccc(O)cc2)C(=O)N[C@@H](CCCNC(=N)N)C(=O)N[C@@H](CCCNC(N)=O)C(=O)N1)C(N)=O [TF7, APA-Arg-Nal-Cys-Tyr-Cit-Lys-DGlu-Pro-Tyr-Arg-Cit-Cys-Arg-NH2] (H-[Ava]R[2Nal]CY[Cit]K[dE]PYR[Cit]CR-NH2; disulfide 4-13) |  |  |  |
| 4.5 | N=C(N)NCCC[C@H](NC(=O)[C@@H]1CSSC[C@H](NC(=O)[C@H](Cc2ccc3ccccc3c2)NC(=O)[C@H](CCCNC(=N)N)NC(=O)[C@H](CCCNC(=N)N)NC(=O)CCCCCN)C(=O)N[C@@H](Cc2ccc(O)cc2)C(=O)N[C@@H](CCCNC(N)=O)C(=O)N[C@@H](CCCCN)C(=O)N[C@H](CCCNC(N)=O)C(=O)N2CCC[C@H]2C(=O)N[C@@H](Cc2ccc(O)cc2)C(=O)N[C@@H](CCCNC(=N)N)C(=O)N[C@@H](CCCNC(N)=O)C(=O)N1)C(N)=O [TF19, ACA-Arg-Arg-Nal-Cys-Tyr-Cit-Lys-DCit-Pro-Tyr-Arg-Cit-Cys-Arg-NH2] (H-[Ahx]RR[2Nal]CY[Cit]K[dCit]PYR[Cit]CR-NH2; disulfide 5-14) |  |  |  |

The next lines start with the molecule.

| Structure (SMILES) | IC50 [3] [nM] | arthritis score [1] | hindlimb swelling [1] | CXCL12-induced migration of MDA-MB-231 cells [2] |
| --- | --- | --- | --- | --- |
| COc1ccc2c(c1)c(CC(=O)O)c(C)n2C(=O)c1ccc(Cl)cc1 [Indomethacin, reference compound] |  | significant or evident inhibitory activity | significantly inhibited |  |
| CN(Cc1cnc2nc(N)nc(N)c2n1)c1ccc(C(=O)N[C@@H](CCC(=O)O)C(=O)O)cc1 [methotrexate, reference compound] |  | significant or evident inhibitory activity | significantly inhibited |  |
| N=C(N)NCCC[C@H](NC(=O)[C@@H]1CSSC[C@H](NC(=O)[C@H](Cc2ccc3ccccc3c2)NC(=O)[C@H](CCCNC(=N)N)NC(=O)[C@@H](N)CCCNC(=N)N)C(=O)N[C@@H](Cc2ccc(O)cc2)C(=O)N[C@@H](CCCNC(=N)N)C(=O)N[C@@H](CCCCN)C(=O)N[C@H](CCC(=O)O)C(=O)N2CCC[C@H]2C(=O)N[C@@H](Cc2ccc(O)cc2)C(=O)N[C@@H](CCCNC(=N)N)C(=O)N[C@@H](CCCNC(N)=O)C(=O)N1)C(=O)O [TE14005, H-Arg-Arg-Nal-Cys-Tyr-Arg-Lys-DGlu-Pro-Tyr-Arg-Cit-Cys-Arg-OH] (H-RR[2Nal]CYRK[dE]PYR[Cit]CR-OH; disulfide 4-13) | 2.2 |  |  | inhibited |
| N=C(N)NCCC[C@H](NC(=O)[C@@H]1CSSC[C@H](NC(=O)[C@H](Cc2ccc3ccccc3c2)NC(=O)[C@H](CCC(=O)O)NC(=O)[C@@H](N)CCCNC(=N)N)C(=O)N[C@@H](Cc2ccc(O)cc2)C(=O)N[C@@H](CCCNC(=N)N)C(=O)N[C@@H](CCCCN)C(=O)N[C@H](CCCCN)C(=O)N2CCC[C@H]2C(=O)N[C@@H](Cc2ccc(O)cc2)C(=O)N[C@@H](CCCNC(=N)N)C(=O)N[C@@H](CCCNC(N)=O)C(=O)N1)C(=O)O [TE14002, H-Arg-Glu-Nal-Cys-Tyr-Arg-Lys-DLys-Pro-Tyr-Arg-Cit-Cys-Arg-OH] (H-RE[2Nal]CYRK[dK]PYR[Cit]CR-OH; disulfide 4-13) | 680 |  |  |  |
